The inhibition is the relative decrease from the control value, in per cent. Higher therefore signals strong suppression. Usually IC50 stands for the point on the concentration scale where inhibition reaches its midpoint.

For five molecules, inhibition and IC50 results are on record in patent publication US20050113566A1, “Inhibitors of C-FMS kinase” (priority 2003, published 2005).

The assay has as its target c-fms (Homo sapiens, UniProt P07333). The assay can be described thus: autophosphorylation, fluorescence polarization competition immunoassay for c-fms inhibition. As to conditions: 10 nM c-fms, 1 mM ATP; for inhibition at 2 µM: at 2 μM compound; for IC50: averages of three independent measurements. It counts as biochemical. The protocol: The assay buffer used was 100 mM 4-(2-hydroxyethyl)piperazine 1-ethanesulfonic acid (HEPES), pH 7.5, 1 mM 1,4-dithio-DL-threitol (DTT), 0.01% (v/v) Tween-20. Compounds were diluted in assay buffer containing 4% dimethylsulfoxide (DMSO) just prior to the assay. To each well, 5 μL of compound were added followed by the addition of 3 μL of a mix containing 33 nM c-fms (Johnson & Johnson PRD) and 16.7 mM MgCl2 (Sigma) in assay buffer. The kinase reaction was initiated by adding 2 μL of 5 mM ATP (Sigma) in assay buffer. The final concentrations in the assay were 10 nM c-fms, 1 mM ATP, 5 mM MgCl2, 2% DMSO. Control reactions were ran in each plate: in positive and negative control wells, assay buffer (made 4% in DMSO) was substituted for the compound; in addition, positive control wells received 1.2 μL of 50 mM ethylenediaminetetraaceticacid (EDTA).
The plates were incubated at room temperature for 45 min. At the end of the incubation, the reaction was quenched with 1.2 μL of 50 mM EDTA (EDTA was not added to the positive control wells at this point; see above). Following a 5-min incubation, each well received 10 μL of a 1:1:3 mixture of anti-phosphotyrosine antibody, 10×, PTK green tracer, 10× (vortexed), FP dilution buffer, respectively (all from PanVera, cat. # P2837). The plate was covered, incubated for 30 min at room temperature and the fluorescence polarization was read on the Analyst. The instrument settings were: 485 nm excitation filter; 530 nm emission filter; Z height: middle of well; G factor: 0.93. […] The reported IC50 values are averages of three independent measurements.

Sequence of c-fms (P07333 20-972): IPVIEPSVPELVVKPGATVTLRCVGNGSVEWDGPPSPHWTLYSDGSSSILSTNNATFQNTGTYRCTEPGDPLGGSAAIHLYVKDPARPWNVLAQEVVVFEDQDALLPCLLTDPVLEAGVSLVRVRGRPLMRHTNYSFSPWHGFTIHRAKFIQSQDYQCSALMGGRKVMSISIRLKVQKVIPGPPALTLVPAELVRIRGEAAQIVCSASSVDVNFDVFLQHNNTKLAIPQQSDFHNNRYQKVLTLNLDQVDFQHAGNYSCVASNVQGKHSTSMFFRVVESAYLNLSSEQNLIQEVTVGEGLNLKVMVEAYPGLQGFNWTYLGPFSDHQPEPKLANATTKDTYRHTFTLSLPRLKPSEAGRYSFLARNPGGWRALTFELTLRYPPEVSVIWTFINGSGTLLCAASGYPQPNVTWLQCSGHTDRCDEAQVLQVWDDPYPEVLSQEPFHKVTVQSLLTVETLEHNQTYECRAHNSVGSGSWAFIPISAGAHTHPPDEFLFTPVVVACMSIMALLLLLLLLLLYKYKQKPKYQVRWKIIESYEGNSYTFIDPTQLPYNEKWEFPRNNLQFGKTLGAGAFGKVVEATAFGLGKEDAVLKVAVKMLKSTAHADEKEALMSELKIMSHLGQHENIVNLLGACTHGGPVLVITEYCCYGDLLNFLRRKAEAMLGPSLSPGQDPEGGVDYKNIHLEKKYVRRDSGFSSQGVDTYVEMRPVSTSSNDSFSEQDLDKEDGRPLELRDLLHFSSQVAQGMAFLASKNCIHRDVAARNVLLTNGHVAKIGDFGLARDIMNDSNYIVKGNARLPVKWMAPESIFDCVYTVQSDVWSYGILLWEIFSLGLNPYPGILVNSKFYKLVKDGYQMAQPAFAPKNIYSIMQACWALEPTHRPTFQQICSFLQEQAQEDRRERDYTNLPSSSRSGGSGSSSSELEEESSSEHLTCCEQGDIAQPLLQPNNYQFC

For `N#Cc1ccc(C(=O)Nc2ccccc2-c2ccco2)o1`, testing at 2 µM gave an inhibition of 13%.
On to `N#Cc1ccc(C(=O)Nc2ccccc2-c2ccccc2)o1`, for which the IC50 is < 5 µM and 2 µM produced 54% inhibition.
Turning to `N#Cc1ccc(C(=O)Nc2ccccc2-c2cccs2)o1`, the inhibition at 2 µM is 25%.
Turning to `N#Cc1ccc(C(=O)Nc2ccccc2C2CCCCC2)o1`, testing at 2 µM gave an inhibition of 29%.
On to `N#Cc1ccc(C(=O)Nc2ccccc2C2=CCCCC2)o1`, for which the 50% inhibitory concentration (IC50) is < 1 µM and the inhibition at 2 µM turned out to be 85%.
